Measured values: patent publication US20180055816A1, “PYRANONAPHTHOQUINONE COMPOUNDS AND METHODS OF USE THEREOF” (University of Kentucky Research Foundation, priority 2016, published 2018)

How the values were obtained:
caspase 3 = assay: Caspase 3 activation / cleaved PARP in HCT116 cells (Western blot); type: cell-based, human; settings: HCT116, 2 μM, 12 h
Procedure: (§1) HCT116 cells were treated with 1 μM MK2206 and 100 nM PD0325901 alone and in combination, 100 nM rapamycin, 0.5 μM AZD8055, 2 μM UCF76-A or 2 μM FB for 12 h followed by Western blot analysis for the indicated proteins.
(§2) Cells were lysed in NP-40 lysis buffer (50 mM Tris-HCl, pH 7.5, 150 mM NaCl, 1 mM EDTA, 1% NP-40, 10% glycerol, protease and phosphatase inhibitor cocktail). Western blot analysis were performed using equivalent total protein loadings as described previously. For immunoprecipitation, the cell lysates were incubated with the indicated antibody overnight followed by incubation with a 50% slurry of protein G sepharose beads for 3 h at 4° C. The beads were washed three times with the lysis buffer, and the immunoprecipitated protein complexes were resuspended in 2× Laemmli sample buffer followed by western blot analysis.

AKT phosphorylation = AKT phosphorylation in HCT116 cells (Western blot); type: cell-based, human; settings: HCT116, 12 h; 2 μM FB or UCF76-A, 0.5 μM AZD8055, 1 μM MK2206
Procedure: as §1, §2

GSSG = assay: Quantification of glutathione disulfide (GSSG) in HCT116 cells; type: cell-based, human; settings: HCT116, 2 μM, 5 h
Procedure: Cells were treated with 2 μM of the indicated compounds or DMSO as control for 5 h. Quantification of GSSG was essentially performed using the manufactures instructions for a microplate assay for GSH/GSSG (Oxford Biomedical Research, Inc, Oxford, Mich.). A total number of 0.5×10^6 cells were collected in 1.5 ml centrifuge tubes containing ice-cold buffer with the thiol scavenger to keep GSSG in its oxidized form. The cells were homogenized with a Teflon pestle and the cell suspension sonicated in icy water for 2-3 minutes. Ice-cold metaphosphoric acid was added to deproteinate the samples. The samples were centrifuged at 1000×g at 4° C. and the supernatants were used for determining the GSSG concentration according to the manufactures protocol using a microplate reader with 405 nm filter. The change in GSSG levels in the indicated compound-treated samples was expressed as fold change compared to control (DMSO) treated samples.

p70S6K phosphorylation = p70S6K phosphorylation in HCT116 cells (Western blot); type: cell-based, human; settings: HCT116, 12 h; 2 μM FB or UCF76-A, 100 nM rapamycin, 0.5 μM AZD8055
Procedure: as §1, §2

4E-BP1 phosphorylation = 4E-BP1 phosphorylation in DLD-1 colon cancer cells (Western blot); type: cell-based, human; settings: DLD-1 cells, 2 μM, 12 hours
Procedure: Cells were treated with 100 nM rapamycin, 0.5 μM AZD8055, 2 μM FB, 2 μM UCF76-A or DMSO control for 12 hours followed by Western blot analysis for the indicated proteins.
as §2

[1] = system: cap-dependent translation; assay: Cap-dependent translation bicistronic luciferase reporter assay in HCT116 cells; type: cell-based, human; settings: 12 h
Grx3 = biological target: T1, Grx3 (Homo sapiens, UniProt O76003); assay: Affinity pull-down / binding to Grx3; settings: streptavidin pull-down, competition, Western blot
T1 construct: endogenous in cells; host or cells: HeLa cell lysates; HCT116 cell lysates
T1 sequence (O76003 1-335): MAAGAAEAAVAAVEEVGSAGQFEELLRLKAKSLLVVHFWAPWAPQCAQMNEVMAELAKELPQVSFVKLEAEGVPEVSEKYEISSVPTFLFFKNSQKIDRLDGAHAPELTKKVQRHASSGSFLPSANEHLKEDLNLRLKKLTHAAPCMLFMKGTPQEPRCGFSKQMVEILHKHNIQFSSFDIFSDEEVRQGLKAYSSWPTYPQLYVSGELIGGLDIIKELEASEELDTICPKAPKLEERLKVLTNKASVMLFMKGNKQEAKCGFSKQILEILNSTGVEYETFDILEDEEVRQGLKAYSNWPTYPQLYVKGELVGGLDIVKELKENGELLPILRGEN
Procedure: The precipitates were resolved by SDS-PAGE, and the gel was stained with Coomassie blue. (C) Sequences illustrating amino acids and peptides of Prx1 and Grx3 identified by mass spectrometry analysis. The unique bands as shown by d7-pull down in the experiment for FIG. 20B were excised and subjected to in-gel tryptic digestion and analysis by MS, wherein the identified amino acids and peptides are shown in red characters. (D) Western blot illustrating that HCT116 cell lysates were incubated with different concentrations of d5 or d7 in the absence or presence of a ten-fold excess of FB for 3 h, followed by pull-down with streptavidin-agarose and Western blot analysis for the indicated proteins.
FIGS. 21A-D show images illustrating that the active probe d7 binds to and co-localizes with Prx1 and Grx3. (A) and (B) The recombinant Prx1 (A) or Grx3 (B) was incubated with d7 for 2 hours, followed by streptavidin pull down and Western blot analysis for the indicated proteins. (C) and (D) HCT116 cells were incubated with 25 μM d5, 25 μM d7 or DMSO as control for 5 hours, followed by confocal sections of the cells staining for Prx1 (C) or Grx3 (D) (red), biotin (green) and DAPI (blue). Scale bars, 10 μm.
HeLa cell pellets were purchased from National Cell Culture Center (Minneapolis, Minn.) and lysed in 20 ml of the NP-40 lysis buffer. […]

cellular GSH = assay: Cellular glutathione (GSH) assay in HCT116 cells; type: cell-based, human; settings: HCT116, 2 μM, 5 h
Procedure: Cells were treated with 2 μM of the indicated compounds or DMSO as control for 5 h. After treatment, a total number of 1×10^6 cells were lysed in 100 μl of ice-cold NP-40 lysis buffer for 10 min. The lysate was centrifuged for 10 min and the supernatant was used for glutathione assay using the ApoGSH glutathione detection kit according to the manufacturer's protocol (BioVision Research Products, Mountain view, CA). The total amount of GSH was measured using a fluorescence plate reader at Ex./Em.=380/460 nm.

Q: Which “activation of caspase 3 with induction of cleaved PARP” value (caspase 3) does the source give for `CCCC1OC2CC(=O)OC2C2=C1C(=O)c1c(O)cccc1C2=O` (centres unmarked) [FB, frenolicin B] here?
A: Its value is “potent activators”.

Q: What about the “inhibition of AKT phosphorylation” value (AKT phosphorylation) of the same molecule?
A: The value was “did not inhibit”.

Q: What about the GSSG levels (GSSG) of the same molecule?
A: The GSSG levels was “increase”.

Q: What about the “inhibition of p70S6K phosphorylation” value (p70S6K phosphorylation) of the same molecule?
A: The value was “only weakly inhibited”.

Q: What about the “inhibition of 4E-BP1 phosphorylation” value (4E-BP1 phosphorylation) of the same molecule?
A: The value was “selectively inhibit”.

Q: And the “inhibition of cap-dependent translation” value [1]?
A: The value was “effectively inhibit”.

Q: What about the “binding to Grx3” value (Grx3) of the same molecule?
A: Its value is “directly targets”.

Q: What about the GSH levels (cellular GSH) of the same molecule?
A: The GSH levels was “decrease”.
